Laboratory results published in PMC9227536, “Prediction of Pharmacokinetics of IDP-73152 in Humans Using Physiologically-Based Pharmacokinetics” (Pharmaceutics, 2022).

Key:
[1] = Unbound fraction in plasma (rapid equilibrium dialysis), dog; type: in vitro ADME; details: dogs plasma, 0.3, 1, 3 μM, RED 5 h, read-out: fu,p
Protocol: The unbound fractions of IDP-73152 in various matrices were measured according to the manufacturer’s instructions for the rapid equilibrium dialysis (RED) device (ThermoFisher Scientific, Waltham, MA, USA). Briefly, IDP-73152 was added to the plasma or the microsomal/hepatocyte incubation buffer from various species (i.e., mouse, rat, dog, and human for microsomal incubation; rat for hepatocyte incubation) to obtain final concentrations of the compound at 0.3, 1, and 3 μM. After the membrane insert was placed in the RED plate, the solution containing IDP-73152 was added (400 µL) to the sample chamber, and the dialysis buffer (600 μL) was added to the buffer chamber. The RED plate was sealed with parafilm and then incubated at 37 °C in the orbital shaker (Lab Companion, Daejeon, Korea) at 100 rpm for 5 h. After a 50 μL aliquot was aspirated from both the sample and buffer chambers, an equal volume of protein-free buffer or blank medium was replaced in the aspirated sample or buffer to render the matrices compositionally identical. The IDP-73152 concentration in the buffer/sample chambers (i.e., CBuffer Chamber and CSample Chamber) was determined by an assay. Thus, the fraction unbound was defined as:(2) % Fraction unbound=(CBuffer Chamber/CSample Chamber)×100%

[2] = Metabolic stability in liver microsomes, mouse; type: in vitro ADME
Protocol: In this study, the metabolic stability of IDP-73152 in microsomes from mice, rats, dogs, and humans, as well as rat hepatocytes, was determined. For a microsomal incubation study, the incubation mixtures, containing mouse, rat, dog, or human liver microsomes at a protein concentration of 0.5 mg/mL, 3.3 mM MgCl2, and 1.3 mM NADPH, in a 100 mM potassium phosphate buffer (pH 7.4), were preincubated for 3 min at 37 °C. In parallel, a control incubation mixture (i.e., identical composition to that of the incubation mixture without NADPH) was also prepared for comparison. The reaction was initiated by the addition of a 10 × solution of IDP-73152 (final concentration in mixtures of 1 μM) to the incubation mixtures or the control incubation mixtures. The mixtures were incubated in a shaking water bath (37 °C, 90 rpm). Aliquots (30 μL) were collected at 0, 15, 30, and 45 min from the mixture and the reaction was terminated by the addition of a 4-fold volume of ice-cold acetonitrile to the sample. The mixture was then vortexed for 5 min and centrifuged for 10 min at 10,000× g. The supernatant was collected and stored at -80 °C until the analysis. For the hepatocyte incubation study, rat hepatocytes were freshly prepared using the two-step collagenase perfusion method with slight modifications. After the isolation, cell viability during the preparation process was first determined by a trypan blue exclusion assay prior to the stability study. The preparation was considered adequate for subsequent studies if the viability was greater than 80%. When appropriate, the hepatocytes were resuspended in Williams' media E containing 10% fetal bovine serum, 1% penicillin-streptomycin, and 0.01% insulin-transferrin-selenium (i.e., 10 mg/mL insulin, 5.5 mg/mL transferrin, and 5 mg/mL selenium) at pH 7.4. The reaction was carried out with the hepatocyte suspension prepared at 1 × 10^6 cells/mL (0.5 mL) and initiated by the addition of equal volume of IDP-73152 solution (i.e., final concentration of the compound at 1 μM in 0.5 × 10^6 cells/mL of hepatocytes) to the hepatocyte suspension. […] Assuming first-order disappearance kinetics, the slope k of the logarithmically transformed IDP-73152 concentration in the sample versus time plot was determined by the linear regression analysis of the data. The total intrinsic clearance (CLint,mic, μL/min/mg protein for microsomal incubation study and CLint,hep, μL/min/million cells for hepatocytes incubation study) was then calculated using the following equations:(4) CLint, mic=k×Volume of incubation medium (μL)/Protein in incubation medium (mg) (5) CLint,hep=k×Volume of incubation (μL)/Number of cells in incubation (×10^6) The unbound intrinsic clearance, with respect to the whole liver ([…]), was then estimated for the two cases. […]

SMILES: CC(C)(C)[C@H](NC(=O)[C@H](CC1CCCC1)CN(O)C=O)C(=O)N1CCC(NCc2cc(F)c(F)cc2F)CC1 [IDP-73152]
- fraction unbound at 5 h [1]: 0.0547 ± 0.0053
- hepatic ER (extraction ratio) ([2]; mice, from microsomal clearance, well-stirred model): 0.102 ± 0.002
- CLu,int,H ([2]; mice, scaled up to the whole liver from microsomes): 0.539 ± 0.011 L/h
- CLhep predicted at 1 μM ([2]; mouse, liver microsomes, pH 7.4, mice, read-out: CLh calculated from the CLint,mic (converted)): 22.7 mL/min/kg
- microsomal CLint at 1 μM ([2]; mouse, pH 7.4, mice liver microsomes 0.5 mg/mL, 1 μM, read-out: CLint,mic): 80.1 ± 1.7 µL/min/mg
